Reference: paper PMC12285946, “Investigation of the Cytotoxicity of Cu(II), Au(III), and Pd(II) Complexes with 2,4-Dithiouracil and 6-Propyl-2-thiouracil Derivatives” (BioTech, 2025)

How the values were obtained:
[1] = tested on: Vero cell line (kidney cells from African green monkey); assay: MTT cell viability assay, Vero normal cell line; format: cell-based; conditions: for Cytotoxic Concentration (CD50): Vero normal cell line, MTT, 72 h
Description: (§1) To assess the in vitro biocompatibility of the tested compounds, a series of cell viability assays were conducted on human cervical carcinoma cell lines (HeLa), as well as on normal Vero cells (kidney cells from the African green monkey). All cell lines were obtained from the German Collection of Microorganisms and Cell Cultures (DSMZ GmbH, Braunschweig, Germany). The cell cultures were maintained in DMEM (Dulbecco’s Modified Eagle Medium) (Gibco Thermofisher Scientific, 168 Third Avenue, Waltham, MA, USA, 02451) growth medium, supplemented with 10% fetal bovine serum (FBS, Sigma-Aldrich, Darmstadt, Germany) and 5% L-glutamine (Sigma-Aldrich, Darmstadt, Germany) and incubated under controlled conditions of 37 °C in a humidified atmosphere with 5% CO2.
(§2) The experimental approach included a series of cytotoxicity assays to determine the extent of cell proliferation inhibition by the synthesized complexes and their free ligands. Cell viability was quantified using a standard MTT-based colorimetric assay. Exponentially growing cells were harvested and seeded (100 μL per well) into 96-well plates at an appropriate density—3 × 10^5 for HeLa and Vero cells. The cells were exposed to various concentrations of the tested compounds, ranging from 0.0001 to 10 mg/mL, and incubated for 72 h.
(§3) Statistical significance was established at p ≤ 0.05.

[2] = tested on: HeLa cell line (human cervical carcinoma); assay: MTT cell viability assay, HeLa tumor cell line; format: cell-based; conditions: for Cytotoxic Concentration (CD50): MTT, 72 h
Description: as §1, §2, §3

HeLa cell lines = conditions: cited from earlier work

Compound: Sc1ccnc(S)n1 [2,4-dithiouracil]
- Cytotoxic Concentration (CD50) [1]: 1.421 mM
- Cytotoxic Concentration (CD50) [2]: 0.3167 mM

Compound: CCCc1cc(=O)[nH]c(=S)[nH]1 [6-propyl-2-thiouracil]
- Cytotoxic Concentration (CD50) [1]: 0.6068 mM
- cytotoxic activity relative to 2,4-dithiouracil ([1]; normal cell line (Vero)): two times stronger
- cytotoxic activity relative to 2,4-dithiouracil [2]: three times
- Cytotoxic Concentration (CD50) [2]: 0.0955 mM

Compound: N.N.[Cl][Pt][Cl] [Cisplatin]
- reduction in cell viability (HeLa cell lines; 0.15 mg/mL, 24 h, HeLa): about 10%
- concentration leading to a significant loss of cell viability (HeLa cell lines; HeLa, on average): 0.003 mg/mL
- concentration needed for complete inhibition of viability (HeLa cell lines; human cervical carcinoma cell line): higher than 1.5 mg/mL

Compound: N.N.O=C([O-])C1(C(=O)[O-])CCC1.[Pt+2] [carboplatin]
- concentration yielding complete inhibition of cell viability (HeLa cell lines; HeLa): 1 mg/mL
